Reference: US20150306110A1, “COMPOSITIONS AND METHODS FOR TREATMENT OF INFLAMMATION AND HYPERKERATOTIC LESIONS” (Novelix Pharmaceuticals, Inc., priority 2008, published 2015)
Converted amounts (≈) assume the structure as drawn.

Test: Solubility in ethanol, DMSO and ethanol-Tween 80
Format: physicochemical
Settings: organic solvent or mixture
Experimental: After solution in ethanol or DMSO, or chemically similar solvents, NVX-207 or a related compound may be formulated with co-solvents such as Cremophor EL® and/or Tween® 80, in a similar manner described for taxanes. For example, the formulation approach for paclitaxel (TAXOL®; Bristol-Myers Squibb) was to use 50% Cremophor EL® and 50% ethanol. The pharmaceutical formulation of paclitaxel contains 30 mg paclitaxel dissolved in 5 ml of this (1:1, v/v) mixture. These and equivalent formulations allow for the application of NVX-207 in sufficiently high concentrations not only for topical, but also for intralesional and systemic (intravenous infusion) use. Solubility of NVX-207 in ethanol was determined to be at least 300 mg/ml and reached 250 mg/ml in DMSO. […] The solubility of NVX-207 in ethanol-Tween® 80 was evaluated. Two-hundred mg of NVX-207 was dissolved in 1 ml ethanol. […] Then an equal volume of Tween® 80 was added, to achieve a stock solution of 100 mg/ml of NVX-207. The stock solution was clear and yellow. Each stock solution was diluted first 1:1 (50 mg/ml NVX-207), then 1:5 (20 mg/ml NVX-207) and finally 1:10 (10 mg/ml NVX-207) with water. […] NVX-207 therefore has, apart from its higher activity, significant advantages over betulinic acid, that include higher activity, better solubility in pharmaceutically suitable solvents, and better handling.

## C=C(C)[C@@H]1CC[C@]2(C(=O)O)CC[C@]3(C)[C@H](CC[C@@H]4[C@@]5(C)CC[C@H](O)C(C)(C)[C@@H]5CC[C@]43C)[C@@H]12 [betulinic acid, reference compound]
Solubility in DMSO
  solubility: 10000 µg/mL (≈ 21.9 mM)
Solubility in ethanol
  solubility: < 1000 µg/mL
